Laboratory results as given in article PMC8894198, “Biosynthetic Microcin J25 Exerts Strong Antibacterial, Anti-Inflammatory Activities, Low Cytotoxicity Without Increasing Drug-Resistance to Bacteria Target” (Frontiers in Immunology, 2022).
Entries after “also recorded” stand apart in the source; their conditions may differ. Where a SMILES comes first, the peptide text is derived from it. Bridges are numbered along the chain shown (N, C = ends).

Key:
E. coli K88 [1] = test: MIC variability (cross-resistance) after 5 days at sub-MIC; format: cell-based; conditions: after culture under ampicillin (0.25 × MIC) for 5 days
Protocol: A 1:100 dilution of the bacteria was performed daily in the above MHB. Aliquots of the culture medium were used daily for 5 days thereafter to determine the MICs of ampicillin, tetracycline, aureomycin, and kanamycin. This study was performed based on our previous study ([29]).

E. coli K88 [2] = format: cell-based; conditions: sublethal levels, daily sequential passages
Protocol: To quantify the production status of the bacteria, the bacterial density was measured after incubating for 24 h. Cultures with the second highest concentration allowed to grow (OD600 ≥ 2) were diluted 1:100 with MccJ25 MHB at different concentrations than those described above. Cultures that grew above the indicated MIC levels were plated on LB agar plates, and their MIC levels were determined by the broth macrodilution method.

IPEC-J2 cells = conditions: previous study; ref [29]; cited from earlier work
Description: Microcins, AMPs, are a large class of antimicrobial agents that can be employed in the treatment of various infectious diseases. […] Cytotoxicity, including the hemolysis of erythrocytes, is one of the main factors limiting the practical application of AMPs. Therefore, it is crucial to have a clear understanding of the c ...

in vitro [3] = test: in vitro
Protocol: (§1) The resistance of MccJ25 to pepsin, trypsin and chymotrypsin was evaluated based on previous studies ([26]), with minor modifications. E. coli K88 cells were prepared (approximately 1 × 10^7 CFU/mL), and 1 mL of the bacterial suspension and MccJ25 were transferred into 9 mL of medium. For the control, MccJ25 was not added. LB agar inoculated with E. coli K88 cells (~10^5 viable cells/mL) was poured onto a plate containing an Oxford cup to form individual wells. Then, 2 and 4 h MccJ25 (1 × MIC) previously subjected to different treatments were added to the wells. The agar overlay was incubated overnight at 37°C, and the diameter of the growth inhibition zone was measured.
(§2) Figure 3 Stability and activity of MccJ25 in different conditions and biological fluids. Various concentration of MccJ25 was incubated with different temperatures (A), pH values (B), (C) SIF, SGF, and serum. Proteases (D-F) for different indicated times. Afterwards, the amount of the remaining MccJ25 was determined by RP-HPLC. […] NE: negative control; Chy: chymotrypsin. […] Effects of temperature (G), RT: room temperature, pH values (H), proteases (I), SGF (J), SIF (K), and serum (L) on the inhibition of E coli K88 by MccJ25. The zone of inhibition is often used to clarify the antimicrobial activity of MccJ25. […] Chy refers to chymotrypsin. Data are presented as the mean of 6 biological replicates ± standard error of mean form.

chymotrypsin = test: in vitro; conditions: RP-HPLC
Protocol: as §1, §2

Caco-2 cells [4] = test: MTT cytotoxicity assay; format: cell-based, human; conditions: different concentrations of MccJ25 up to 512 μg/mL, 24 h, 37°C; vs control; n = 6
Protocol: (§3) To test whether MccJ25 could have an effect on the metabolic activity of the cells, the necessary MTT assay was performed (Roche Molecular Biochemistry, Mannheim, Germany) as previously described ([28], [29]). The whole operation process can be briefly summarized as follows: first, various concentration gradients of MccJ25 solution were added, the ambient temperature of the cell secondary incubation was maintained at 37°C, the CO2 concentration was maintained at 5%, and the incubation time needed to reach 24 h. The control group was the cells without any treatment. Afterwards, 20 μL of MTT solution (concentration 5 mg/mL, medium DPBS) was added to all wells and incubated for 3.5 h at a temperature of 37°C and a CO2 concentration of 5%. Components of the medium were removed by centrifugation, and the MTT metabolites were resuspended in 200 μL of dimethyl sulfoxide. The absorbance value at 560 nm was measured, and the background value was the absorbance at 670 nm, which needed to be subtracted from the background value to obtain the absorbance value.

pig erythrocytes (pRBCs) = conditions: 512 μg/mL (highest concentration), 8% RBCs in PBS, 37°C, 1 h, A414
Protocol: (§4) Fresh mouse/pig erythrocytes (mRBCs/pRBCs) were collected from well-grown animals, centrifuged at 4,200 rpm and washed well with phosphate-buffered saline (PBS) to ensure that their supernatants were free of impurities and remained clear. The liquid was added to the 96-well plate after 2-fold dilution of MccJ25 prepared with PBS, and the final concentration of RBCs was introduced at 8%. The plate was stirred less vigorously to homogenize the liquid and incubated at 37°C for 1 h. The supernatant was then centrifuged at 4,500 rpm for 10 min, and its absorbance value at 414 nm was measured. Three replicate groups were set up for all the above experiments, and the percentage hemolysis was calculated as follows: percentage hemolysis = [(A414 in peptide solution - A414 in PBS)/(A414 in […] - A414 in PBS)]. ×100, where 100% hemolysis refers to the absorbance of RBCs exposed to 1% Triton X-100 in the environment and 0% hemolysis refers to the absorbance of RBCs exposed to PBS. The positive control used in this experiment was melittin.

[5] = tested on: mouse erythrocytes (mRBCs); conditions: 512 μg/mL (highest concentration), 8% RBCs in PBS, 37°C, 1 h, A414
Protocol: as §4

RAW264.7 cells [6] = conditions: 2 to 512 μg/mL MccJ25, 24 h, 37°C; n = 6
Protocol: (§5) Certain adjustments were made to Dulbecco’s modified Eagle’s medium (DMEM), i.e., 20% fetal bovine serum (FBS) was added, and human colon cancer cell line Caco-2 and murine cell line macrophage RAW264.7 cells were inoculated into the adjusted medium, with the inoculum density maintained at 2 × 10^4 cells/mL, placed in 96-well plates until the overall confluence ratio reached 80% to 90%, respectively.
(§6) The secretion of the cell membrane enzyme lactate dehydrogenase (LDH) was measured on the basis of a colorimetric assay. Caco-2 and RAW264.7 cells (2 × 10^4 cells/well) as controls without or with concentrations of 2 to 512 μg/mL MccJ25 were incubated for 24 h at 37°C in 5% CO2. A simple step was to transfer 100 μL of cell culture medium from each well to a new 96-well plate and measure the activity of LDH based on the LDH cytotoxicity assay kit (Clontech, Mountain View, CA, USA) according to the manufacturer’s instructions. The catalyst and dye solutions were mixed well and added to the wells containing cell culture medium and then incubated for 30 min at room temperature. The absorbance at 490 and 670 nm was measured with a microplate reader (Model SynergyMx, BioTek, Winooski, VT, USA). Absorbance values were corrected by subtracting the […].

Caco-2 cells [7] = conditions: 2 to 512 μg/mL MccJ25, 24 h, 37°C; n = 6
Protocol: as §5, §6

[8] = remaining peptide by RP-HPLC, n = 6
Protocol: as §2

[9] = RP-HPLC
Protocol: (§7) The simulated gastric fluid (SGF) and simulated intestinal fluid (SIF) were mainly based on the relevant contents of the Chinese Pharmacopoeia as described previously ([26]). SGF was configurated with 10 mg/mL pepsin, 0.03 M NaCl was used to blend the pH to 1.5, while SIF was configured with 10 mg/mL trypsin, 0.05 M KH2PO4 was used to blended pH as 7. SGF and SIF were then measured separately, and the antimicrobial activity of MccJ25 in serum was determined. E. coli K88 cells were grown in MHB (Difco Laboratories, Detroit, MI, USA). In short, 1 mL of the bacterial suspension and MccJ25 were transferred into 9 mL of medium. The control group was as follows: no MccJ25 was added to it. E. coli K88 cells with a live cell count maintained at approximately 10^5 cells per milliliter were inoculated on LB agar, which was then poured into plates equipped with Oxford cups, thus forming wells. Then, MccJ25 (1 × MIC) previously treated with SGF, SIF and serum for 2, 4, and 6 h was added to these wells. One of the agar substances covering the wells needs to be incubated overnight at 37°C, and finally, the size of its growth inhibition area, i.e., the diameter, needs to be determined.
Figure 3 Stability and activity of MccJ25 in different conditions and biological fluids. […] Afterwards, the amount of the remaining MccJ25 was determined by RP-HPLC. […]

in vitro [10] = test: in vitro; remark: listed apart in the source
Protocol: as §7, §2

RAW264.7 cells [11] = test: MTT cytotoxicity assay; format: cell-based, murine; conditions: different concentrations of MccJ25 up to 512 μg/mL, 24 h, 37°C; vs control; n = 6
Protocol: as §3

**Q.** Which results are given for CC1(C)S[C@@H]2[C@H](NC(=O)[C@H](N)c3ccccc3)C(=O)N2[C@H]1C(=O)O [ampicillin]?
**A.** elevation of the MIC of the antibiotic (E. coli K88 [1]): 2 fold; time of serial passage until resistance (E. coli K88 [2]): ≤ 4 days

**Q.** Which cytotoxicity (IPEC-J2 cells) does the source give for CC[C@H](C)[C@H](NC(=O)CNC(=O)[C@@H](NC(=O)[C@H](Cc1ccccc1)NC(=O)[C@H](Cc1ccc(O)cc1)NC(=O)[C@@H]1CCC(=O)NCC(=O)NCC(=O)N[C@@H](C)C(=O)NCC(=O)N[C@@H](Cc2cnc[nH]2)C(=O)N[C@@H](C(C)C)C(=O)N2CCC[C@H]2C(=O)N1)C(C)C)C(=O)NCC(=O)N[C@H](C(=O)N1CCC[C@H]1C(=O)N[C@H](C(=O)N[C@@H](CO)C(=O)N[C@@H](Cc1ccccc1)C(=O)N[C@@H](Cc1ccc(O)cc1)C(=O)NCC(=O)O)[C@@H](C)CC)[C@@H](C)O [MccJ25, microcin J25] (GGAGHVPEYFVGIGTPISFYG-OH; lactam N-8) here?
**A.** not cytotoxic

**Q.** And the metabolised at 1 h (in vitro [3]; chymotrypsin (isolated protease))?
**A.** 70%

**Q.** And the remaining at 6 h (in vitro [3]; pepsin (isolated protease))?
**A.** > 70%

**Q.** And the remaining at 6 h (in vitro [3]; trypsin (isolated protease))?
**A.** > 70%

**Q.** And the “level of intact MccJ25 exposed to chymotrypsin” value (chymotrypsin; 2 and 4 h)?
**A.** below the detection limit

**Q.** And the “intact MccJ25 after exposure to chymotrypsin” value (chymotrypsin; after 6 h)?
**A.** below the detection limit

**Q.** What about the “cell viability (MTT)” value (Caco-2 cells [4]) of the same compound?
**A.** nontoxic; also recorded: no significant differences in cell survival

**Q.** What about the hemolysis (pig erythrocytes (pRBCs)) of the same compound?
**A.** 4.07%

**Q.** And the hemolysis [5]?
**A.** 4.16%

**Q.** And the “LDH activity (plasma membrane integrity)” value (RAW264.7 cells [6])?
**A.** did not stimulate LDH activity

**Q.** What about the “LDH activity (plasma membrane integrity)” value (Caco-2 cells [7]) of the same compound?
**A.** did not stimulate LDH activity

**Q.** And the “stability of intact MccJ25 at high temperature” value ([8]; 121°C, 20 min)?
**A.** able to maintain its own steady state

**Q.** And the “stability of intact MccJ25 at different pH” value ([8]; pH 2.0 to 9.0, 2 h)?
**A.** able to maintain its own steady state

**Q.** What about the “intact MccJ25 after 6 h of incubation in SGF” value ([9]; SGF pH 1.5, 10 mg/mL pepsin, 6 h) of the same compound?
**A.** still present

**Q.** And the “concentration of intact MccJ25 in SGF” value ([9]; SGF: 10 mg/mL pepsin, 0.03 M NaCl, pH 1.5, up to 6 h, n = 6)?
**A.** decreased slowly

**Q.** What about the “intact MccJ25 after 6 h of incubation in serum” value (in vitro [10]; 6 h, RP-HPLC) of the same compound?
**A.** still present

**Q.** And the “intact MccJ25 after 6 h of incubation in SIF” value (in vitro [10]; SIF pH 7, 10 mg/mL trypsin, 6 h, RP-HPLC)?
**A.** still present

**Q.** What about the half-life (in vitro [10]; mouse, serum) of the same compound?
**A.** 4 h

**Q.** What about the half-life (in vitro [10]; simulated intestinal fluid (SIF) with 10 mg/mL trypsin, pH 7) of the same compound?
**A.** 2 h

**Q.** And the “cell viability (MTT)” value (RAW264.7 cells [11])?
**A.** nontoxic; also recorded: no significant differences in cell survival

**Q.** For NC[C@H]1O[C@H](O[C@H]2[C@H](O)[C@@H](O[C@H]3O[C@H](CO)[C@@H](O)[C@H](N)[C@H]3O)[C@H](N)C[C@@H]2N)[C@H](O)[C@@H](O)[C@@H]1O [kanamycin], which “elevation of the MIC of the antibiotic” value (E. coli K88 [1]) is on record?
**A.** 2 fold

**Q.** For CN(C)[C@@H]1C(O)=C(C(N)=O)C(=O)[C@@]2(O)C(O)=C3C(=O)c4c(O)cccc4[C@@](C)(O)[C@H]3C[C@@H]12 [tetracycline], which “elevation of the MIC of the antibiotic” value (E. coli K88 [1]) is on record?
**A.** 2 fold

**Q.** And the “time of serial passage until resistance” value (E. coli K88 [2])?
**A.** ≤ 3 days

**Q.** Which “elevation of the MIC of the antibiotic” value (E. coli K88 [1]) does the source give for O=C(O)c1cn(C2CC2)c2cc(N3CCNCC3)c(F)cc2c1=O [ciprofloxacin] here?
**A.** 2 fold
